The values below come from paper PMC7114351 (Antiviral Research, 2008).

Values joined by “and” are separate entries in the source; they are usually repeats but may differ in a detail not shown here. Equal entries are not always repeated. “Also recorded” adds a separate entry of the source. Where two headings read alike, the source gives them in different places.

The subject of data set [1] is recombinant VACV expressing luciferase. The data set is described as follows: microbe, parasite or virus in culture. The settings on record: for IC50: Orthopoxvirus vaccinia, read-out: Luc IC50 ± SD. The format is cell-based, vaccinia virus.
Data set [2] has as its system VACV late promoter p4b (Luc L). The class given is cell-based, vaccinia virus.
For another data set, the system named is VACV (strain WR). To be noted: HFF cells, ref Quenelle et al., 2007; cited from earlier work.
The subject of another data set is recombinant VACV. The experiment in a line: microbe, parasite or virus in culture. The format is cell-based, vaccinia virus. To be noted: for IC50 / IC90: Orthopoxvirus vaccinia; for IC50: read-out: Titer IC50 ± SD; for IC90: read-out: Titer IC90 ± SD.
Another data set concerns WT VACV (WR). The data set is described as follows: microbe, parasite or virus in culture. The class given is cell-based. The settings on record: Orthopoxvirus vaccinia; for IC50: read-out: Titer IC50 ± SD; for IC90: read-out: Titer IC90 ± SD.
The nature of data set [3]: Cytotoxicity, MTT assay. The format is cell-based, human. To be noted: human, HeLa G cells. For orientation: Tetrazolium assays rely on reduction of a dye to a coloured formazan, in cell work by metabolically active cells.
Data set [4] in a line: Cytotoxicity, MTT assay. The class given is cell-based, African green monkey. The settings on record: African green monkey, BSC-40 cells.
Data set [5] is described as follows: Cytotoxicity, MTT assay. The format is cell-based, mouse. The settings on record: mouse, L929 cells.
Data set [6] can be described thus: Cytotoxicity, MTT assay. The class given is cell-based. To be noted: human, Jurkat cells.
For another data set, the system named is WT VACV. The format is cell-based, vaccinia virus.
Another data set deals with VACV proteins. The format is cell-based, vaccinia virus.
A further data set has as its system VACV genomic DNA. The class given is cell-based, vaccinia virus.
The next data set has as its system HeLa G cells. The data set is described as follows: Cytotoxicity, MTT assay. The class given is cell-based, human.
For another data set, the system named is BSC-40 cells. The experiment in a line: Cytotoxicity, MTT assay. The format is cell-based, African green monkey.
The test system of another data set is L929 cells. The experiment in a line: Cytotoxicity, MTT assay. The class given is cell-based, mouse.
The subject of the next data set is VACV. The class given is cell-based, vaccinia virus.
Data set [7] relates to VACV early/late promoter p7.5 (Luc E/L). The format is cell-based, vaccinia virus.
The subject of data set [8] is luciferase expressed by Luc E/L or Luc L. The class given is cell-based, vaccinia virus.
The subject of data set [9] is cell lines of the antiviral assays. The data set is described as follows: Cytotoxicity in conditions of the antiviral assays. To be noted: up to 1 mM; higher cell density, 2% serum, 24 h incubation.
The subject of another data set is VACVs (strain WR). To be noted: two different VACVs (strain WR), ref Becker et al., 2008, cited from earlier work.

Turning to `O[C@@H](CS)[C@@H](O)CS` (racemic) [dithiothreitol], the “luciferase activity, % of the mock-treated controls” value (“luciferase activity, %” for short) in [1] was 140%.
Consider `Nc1ccn([C@@H]2O[C@H](CO)[C@@H](O)[C@@H]2O)c(=O)n1` [AraC, cytosine arabinoside], for which, in data set [2], the “activity of luciferase expressed by Luc L, % of the mock-treated controls grown in the absence of AraC” value is no more than 0.05%.
As for `CCCCCCCCCCCCCCCCOCCCOP(=O)(O)CO[C@H](CO)Cn1ccc(N)nc1=O` [CMX001], the IC50 in the data set with VACV (strain WR) was 0.13 µM.
Consider `C=C(CC)C(=O)c1ccc(OCC(=O)O)c(Cl)c1Cl` [Ethacrynic acid, ethacrynic acid], for which the IC50 was 18.3 ± 3.7 µM in data set [1] (24 h); 35.3 ± 7 µM in [1] (BSC-40, 24 h); 2.6 ± 0.6 µM in data set [1] (HeLa, 24 h); 26.5 ± 1.9 µM in [1] (L929, 24 h); 12.2 ± 0.3 µM in the data set with recombinant VACV (24 h); 11.9 ± 0.5 µM with recombinant VACV (BSC-40, 24 h). Moreover, the concentration for half-maximal inhibition (IC50) with recombinant VACV (HeLa, 24 h) was found to be 1.6 ± 0.1 µM; with recombinant VACV (Jurkat, 24 h), 9.5 ± 2.4 µM; in the data set with recombinant VACV (L929, 24 h), 19.8 ± 2.4 µM; in the data set with WT VACV (WR) (24 h), 9.5 ± 2.6 µM; in the data set with WT VACV (WR) (BSC-40, 24 h), 9.2 ± 1 µM; with WT VACV (WR) (Jurkat, 24 h) it was 13.8 ± 4.7 µM. The 50% inhibitory concentration (IC50) in the data set on WT VACV (WR) (L929, 24 h) amounted to 19.3 ± 3.9 µM. In addition, in the data set with recombinant VACV, the “inhibition of VACV growth” value was 1 logs and 2 logs. Moreover, the 90% effect concentration (IC90) in the data set with recombinant VACV (24 h) worked out at 40.9 ± 1.4 µM; with recombinant VACV (BSC-40, 24 h), 30.9 ± 0.8 µM; in the data set on recombinant VACV (HeLa, 24 h), 5.4 ± 0.3 µM; with recombinant VACV (Jurkat, 24 h), 30.9 ± 10 µM; in the data set on recombinant VACV (L929, 24 h), 80.2 ± 30.9 µM; in the data set on WT VACV (WR) (24 h) it was 47.8 ± 7.9 µM. Moreover, the IC90 with WT VACV (WR) (BSC-40, 24 h) amounted to 29.4 ± 1 µM; with WT VACV (WR) (HeLa, 24 h), 18.8 ± 0.6 µM; in the data set on WT VACV (WR) (Jurkat, 24 h) it was 42.9 ± 13.4 µM; in the data set on WT VACV (WR) (L929, 24 h), 61.3 ± 16.3 µM. Moreover, the CC50 at 2 days was 128 µM in the data set “Cytotoxicity, MTT assay [3]”; 292 µM in “Cytotoxicity, MTT assay [4]”; 224 µM in “Cytotoxicity, MTT assay [5]”; 35 µM in “Cytotoxicity, MTT assay [6]”. Moreover, the number of plaques entry in the data set with WT VACV is “reduced the number of plaques”. In addition, the “VACV protein levels, western blot” value with VACV proteins is “did not seem to decrease protein levels”. Also, the “levels of VACV genomic DNA” value in the data set on VACV genomic DNA is on record as “not changed”.
As to `O=C1O[C@H]([C@@H](O)CO)C(O)=C1O` [L-ascorbic acid, L-Ascorbic acid], the “luciferase activity, %” value in data set [1] was 120%.
Consider `O=C(O)CCCCC1CCSS1` (stereo not drawn) [Lipoic acid, α-lipoic acid], for which the half-maximal inhibitory concentration (IC50) in data set [1] (24 h) came out at 305 ± 12 µM; in data set [1] (BSC-40, 24 h), 642 ± 4 µM; in [1] (HeLa, 24 h) it was 838 ± 159 µM; in [1] (L929, 24 h), 747 ± 199 µM; in the data set with recombinant VACV (BSC-40, 24 h) it was 409 ± 8 µM; in the data set with recombinant VACV (HeLa, 24 h) it was 220 ± 14 µM. The half-inhibitory concentration (IC50) with recombinant VACV (Jurkat, 24 h) was 354 ± 52 µM; with recombinant VACV (L929, 24 h), 245 ± 18 µM; with WT VACV (WR) (24 h), 587 ± 296 µM; with WT VACV (WR) (BSC-40, 24 h) it was 712 ± 444 µM; in the data set on WT VACV (WR) (HeLa, 24 h), 803 ± 273 µM; in the data set with WT VACV (WR) (Jurkat, 24 h), 492 ± 92 µM. The IC50 with WT VACV (WR) (L929, 24 h) is 702 ± 16 µM. The CC50 entry is reported as “Growth promotion” with HeLa G cells (MTT, 2 days of incubation); “Growth promotion” with BSC-40 cells (MTT, 2 days of incubation); “Growth promotion” in the data set on L929 cells (MTT, 2 days of incubation). Moreover, the “inhibition of cell growth, MTT” value in the data set on HeLa G cells (up to 2 mM), with BSC-40 cells (up to 2 mM) and in the data set with L929 cells (up to 2 mM) was “not found to inhibit growth” throughout. The half-maximal cytotoxic concentration (CC50) at 2 days in “Cytotoxicity, MTT assay [6]” was greater than 2000 µM. In the data set on WT VACV, the size of plaques entry is given as “reduced the size of plaques”. Besides, the “effect of pre-treatment on luciferase activity and virus titers (VACV entry)” value in the data set on VACV is “not found to cause any differences”. The “effect on activity of Luc E/L” value in [7] is “dose-dependent inhibitory effect”. The “effect on activity of luciferase expressed by Luc E/L (early gene expression)” value in [7] was “neither EA nor LA further decreased this measurable activity of luciferase”. In addition, the “effect on activity of Luc L” value in [2] is reported as “dose-dependent inhibitory effect”. Also, the “effect on activity of luciferase expressed by Luc L” value in data set [2] was “neither EA nor LA affected this result”. In addition, in data set [8], the “protein levels of luciferase, western blot” value was “gradual decrease”. Moreover, the “VACV protein levels, western blot” value in the data set on VACV proteins was “did not induce any major changes; also recorded: decreased the protein expression slightly”. In the data set on VACV genomic DNA, the “levels of VACV genomic DNA” value was “not changed”. The “cytotoxicity in conditions of the antiviral assays” value in data set [9] is “neither EA nor LA induced any obvious cytotoxicity”.
Take `O=C(NN1C(=O)[C@@H]2[C@@H]3C=C[C@@H]([C@H]4C[C@@H]34)[C@@H]2C1=O)c1ccc(C(F)(F)F)cc1` [ST-246]: the concentration for half-maximal inhibition (IC50) in the data set with VACV (strain WR) was 0.1 µM.
Consider `Nc1ccn(C[C@@H](CO)OCP(=O)(O)O)c(=O)n1` [cidofovir], for which the IC50 is less than 50 µM with VACVs (strain WR) (BSC-40 cells); 54 µM and 62 µM in the data set on VACVs (strain WR) (Vero cells); 33 µM with VACV (strain WR).
As to `OCCS` [β-mercapthoethanol, β-mercaptoethanol], the “luciferase activity, %” value in [1] turned out to be 150%.

A word on the IC50: it is the concentration at which inhibition is half-maximal. What is called IC90 is the point of the concentration-response curve where the effect stands at 90%. By CC50 is commonly meant the concentration giving 50% cytotoxicity. High values mean better tolerance by the cells, low ones harm at low concentration.
